From patent US20160120938A1, “P2X7 RECEPTOR AGONIST FOR USE IN PREVENTING OR TREATING KIDNEY INJURY” (UCL BUSINESS PLC, priority 2013, published 2016)

Assays:
Type in all cases: in vivo
P2X7R [1] = target: T1, P2X7R (Rattus norvegicus, UniProt Q64663); assay: Creatinine in BDL rats given LPS infusion with intra-renal P2X7R agonist; conditions: LPS 0.25 mg/kg iv over 3 hours
T1 construct: upregulation of the tubular expression of the P2X7R; from tissue; host or cells: kidney of living Sprague-Dawley rats (sham, BDL, BDL+LPS); compounds dosed in vivo
T1 sequence (Q64663 1-595): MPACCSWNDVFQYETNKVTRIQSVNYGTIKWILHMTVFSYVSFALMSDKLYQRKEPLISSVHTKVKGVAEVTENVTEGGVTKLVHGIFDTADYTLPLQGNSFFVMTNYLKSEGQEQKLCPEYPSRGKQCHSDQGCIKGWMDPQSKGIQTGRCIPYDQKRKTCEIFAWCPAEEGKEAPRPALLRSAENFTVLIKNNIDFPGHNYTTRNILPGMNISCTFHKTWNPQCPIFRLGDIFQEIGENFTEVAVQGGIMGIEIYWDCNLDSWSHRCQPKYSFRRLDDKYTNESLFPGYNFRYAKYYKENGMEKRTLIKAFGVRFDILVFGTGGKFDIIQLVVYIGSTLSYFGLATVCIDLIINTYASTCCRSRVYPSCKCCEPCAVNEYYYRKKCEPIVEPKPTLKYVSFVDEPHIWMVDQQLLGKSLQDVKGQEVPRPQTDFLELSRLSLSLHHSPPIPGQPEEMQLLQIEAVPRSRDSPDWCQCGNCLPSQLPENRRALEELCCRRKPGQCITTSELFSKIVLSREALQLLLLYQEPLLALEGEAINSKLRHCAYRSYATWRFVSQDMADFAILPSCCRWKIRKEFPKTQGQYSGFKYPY
Excerpt: (§1) These experiments utilised an established animal model of cirrhosis, the bile duct ligated (BDL) rat. BDL rats may be generated by methods known in the art. For example, male Sprague-Dawley rats (200-250 g) may be used for this procedure. Following anaesthetisation, a mid-line laparotamy may be performed, the bile duct exposed, triply ligated with 4.0 silk suture, and severed between the second and third ligature. The wound is then closed in layers with absorbable suture, and the animal allowed to recover in a quiet room before being returned to the animal storage facility. Sham animals underwent sham laparotomy. The BDL model was studied 4 weeks after bile duct ligation and liver histology confirmed advanced fibrosis.
Rats were given a continuous intravenous infusion of LPS at 0.25 mg/kg over 3 hours. The P2X7R agonist BzATP was infused into the renal artery 30 mins before LPS infusion began and continued for the duration of the experiment at a dose of 150 μg/hour.

P2X7R [2] = target: T1, P2X7R; assay: Biomarkers of acute kidney injury in cirrhotic AKI model (BDL rat + LPS) with P2X7R antagonist; conditions: 300 μmol/kg 12-hourly 7 days before LPS 0.5 mg/kg IP, terminated 3 hours post LPS
Excerpt: as §1
(§2) LPS (lipopolysaccharide) was given at a dose of 0.5 mg/kg intra-peritoneal. The P2X7R antagonist (A-438079) was given at a dose of 300 μmol/kg 12-hourly 7 days before LPS was given (if applicable). Animals were terminated 3 hours post LPS dose. P2X7RA=P2X7R antagonist.
(§3) Urine was collected for assessment of urinary biomarkers of acute kidney injury (AKI). Blood was collected for biochemistry, endotoxin and cytokine analysis. Tissue was collected for histology, immunohistochemistry and western blot. Brain frontal cortex was collected to ascertain brain water. Biochemistry was measured using COBAS integra. Urinary NGAL was measured by ELISA.

P2X7R [3] = target: T1, P2X7R; assay: P2X7 receptor expression in kidneys, cirrhotic AKI model (BDL rat + LPS), immunohistochemistry; conditions: 300 μmol/kg IP 12-hourly for 7 days, with or without LPS 0.5 mg/kg IP, n=3 in each group, FIG. 3
Excerpt: as §1, §2
as §3, with “ELISA. […]” for “ELISA.”

increased P2X7 receptor expression in kidneys (tubular expression) of BDL and BDL+LPS animals (P2X7R [3]) | Compound | Creatinine (mean) (P2X7R [1]; BDL + LPS + BzATP group, 150 μg/hour into renal artery) [µmol/L] | reduction of LPS induced rise in creatinine (P2X7R [1]; BDL rat, infused into renal artery 150 μg/hour from 30 mins before LPS, FIG. 7) [%] | biomarkers of acute kidney injury (urine NGAL, creatinine) compared to the other groups (P2X7R [2]; FIG. 4) | biomarkers of acute kidney injury (urine NGAL, creatinine) compared to the other groups (P2X7R [2]; FIG. 4, listed as P2X7R antagonist)
– | 2′(3′)-O-(4-Benzoylbenzoyl)adenosine-5′-triphosphate [BzATP] | 57.93 | 24 | – | –
attenuated | Clc1cccc(-c2nnnn2Cc2cccnc2)c1Cl [A-438079] | – | – | greater | higher
